For assay [1], the target named is T1, human recombinant mTOR kinase (Homo sapiens, UniProt P42345).
T1 construct: a purified recombinant mTOR fragment (amino acids 1360-2549, CBA104-1KIT from Calbiochem); purchased Calbiochem CBA104-1KIT
In words: In vitro mTOR kinase assay (K-LISA ELISA, p70S6K-GST substrate). Format: biochemical. Here is the method:
The mTOR kinase inhibitory activities of the 41 final virtual hits were determined using an ELISA-based activity assays that utilize a p70S6K-GST fusion protein as a specific mTOR substrate (see the Experimental Section for details). For the initial screening, all the activities were measured at a concentration of 10 μM.
mTOR activity was evaluated using a purified recombinant mTOR fragment (amino acids 1360-2549, CBA104-1KIT from Calbiochem). The K-LISA^TM mTOR activity kit is an ELISA-based activity assay for detection of phosphorylation of a p70S6K-GST fusion protein (a specific mTOR substrate) in the presence of ATP. The assay was optimized for use with mTOR as described in the Calbiochem protocol. The assay takes place in 96-well plates and can be divided into two phases: an mTOR kinase reaction phase and phosphorylated substrate detection phase.
In the kinase reaction phase, the following components were mixed in the same well: 5 μL of a solution containing 5 μg/mL mTOR substrate (recombinant p70S6K-GST fusion protein) in Tris-buffered saline (1 L TBS: sodium chloride 8.8 g, Tris Base 2.4 g, HCl 13 mL, Tween-20 10 ml, ddH2O), 5 μL ATP solution containing 20 mM ATP diluted in kinase assay buffer (pH 7.4, 0.01% Tween 20, 1 mM EDTA, 10 mM MgCl2, 1 mM DTT), […] of human recombinant mTOR kinase at the optimal concentration (80 ng/well) diluted in kinase assay buffer, and 5 μL of serial dilutions of inhibitors diluted in DMSO and kinase assay buffer. For each inhibitor concentration, the assay was run in triplicate. The final reaction volume was 100 μL per well, and samples incubated for 30 min at room temperature.
The kinase reaction was stopped by adding 10 μL kinase stop solution to each well. The phosphorylated substrate was detected using Anti-p70S6K-pT389 antibody, followed by detection with HRP-Antibody Conjugate and TMB Substrate. Then, ELISA stop solution was added to each well to stop the reaction, and relative mTOR inhibition activity was determined by reading the absorbance at dual wavelengths of 450/540 nm.
(An ELISA detects its analyte on a solid surface through an enzyme-linked reagent.)

Assay [2] deals with mTORC1 (phosphorylation of p70S6K and 4E-BP1) in HeLa cells. In words: Western blot of mTORC1 activity. The note with it: 2.47 and 5.48 μM. Format: cell-based, human. As for the experimental part:
In vitro mTOR kinase assay confirmed that 17 did inhibit mTOR kinase activity (Table 1). The mTOR pathway is frequently activated in human cancers (e.g., HeLa and MCF-7). To assure compound 17 inhibits the mTOR pathway inside the cell, western blotting was employed to check the activity of mTORC1 (Complex 1) and mTORC2 (Complex 2). HeLa cell line was selected for western blot analysis after treatment with compound 17 at 2.47 and 5.48 μM; detailed results are shown in Fig. 8.
mTORC1 activity was evaluated by determining the phosphorylation level of its targets, p70S6K and 4E-BP1, in the HeLa cell line. […] Quantitative of the phosphorylation levels of p70SK6 and 4E-BP1 are […] with the concentration of 17 (Fig. 8).
HeLa cells were cultured in a six-well plate in the presence of compound 17 for 48 h. Samples were prepared by lysing PBS-washed cells with RIPA buffer (Beyotime, Haimen, China) consisting of 1% Nonidet P-40, 0.5% sodium deoxycholate, 0.1% SDS, and 50 mM Tris-HCl, pH 7.4, supplemented with NaF, NaVO4, EDTA and a protease inhibitor cocktail (Roche). Proteins were subjected to SDS-PAGE gel electrophoresis and transferred onto a polyvinylidene difluoride membrane (Hybond-P; GE Healthcare Life Sciences, Piscataway, NJ). […] The densitometry of each band was quantified by FluorChem 8000 (AlphaInnotech, San Leandro, CA).
For orientation: Immunoblotting shows a protein as a band on a membrane.

Values joined by “and” are separate entries in the source; they are usually repeats but may differ in a detail not shown here. Identical values can stand only once.

T1 sequence (P42345 1360-2549): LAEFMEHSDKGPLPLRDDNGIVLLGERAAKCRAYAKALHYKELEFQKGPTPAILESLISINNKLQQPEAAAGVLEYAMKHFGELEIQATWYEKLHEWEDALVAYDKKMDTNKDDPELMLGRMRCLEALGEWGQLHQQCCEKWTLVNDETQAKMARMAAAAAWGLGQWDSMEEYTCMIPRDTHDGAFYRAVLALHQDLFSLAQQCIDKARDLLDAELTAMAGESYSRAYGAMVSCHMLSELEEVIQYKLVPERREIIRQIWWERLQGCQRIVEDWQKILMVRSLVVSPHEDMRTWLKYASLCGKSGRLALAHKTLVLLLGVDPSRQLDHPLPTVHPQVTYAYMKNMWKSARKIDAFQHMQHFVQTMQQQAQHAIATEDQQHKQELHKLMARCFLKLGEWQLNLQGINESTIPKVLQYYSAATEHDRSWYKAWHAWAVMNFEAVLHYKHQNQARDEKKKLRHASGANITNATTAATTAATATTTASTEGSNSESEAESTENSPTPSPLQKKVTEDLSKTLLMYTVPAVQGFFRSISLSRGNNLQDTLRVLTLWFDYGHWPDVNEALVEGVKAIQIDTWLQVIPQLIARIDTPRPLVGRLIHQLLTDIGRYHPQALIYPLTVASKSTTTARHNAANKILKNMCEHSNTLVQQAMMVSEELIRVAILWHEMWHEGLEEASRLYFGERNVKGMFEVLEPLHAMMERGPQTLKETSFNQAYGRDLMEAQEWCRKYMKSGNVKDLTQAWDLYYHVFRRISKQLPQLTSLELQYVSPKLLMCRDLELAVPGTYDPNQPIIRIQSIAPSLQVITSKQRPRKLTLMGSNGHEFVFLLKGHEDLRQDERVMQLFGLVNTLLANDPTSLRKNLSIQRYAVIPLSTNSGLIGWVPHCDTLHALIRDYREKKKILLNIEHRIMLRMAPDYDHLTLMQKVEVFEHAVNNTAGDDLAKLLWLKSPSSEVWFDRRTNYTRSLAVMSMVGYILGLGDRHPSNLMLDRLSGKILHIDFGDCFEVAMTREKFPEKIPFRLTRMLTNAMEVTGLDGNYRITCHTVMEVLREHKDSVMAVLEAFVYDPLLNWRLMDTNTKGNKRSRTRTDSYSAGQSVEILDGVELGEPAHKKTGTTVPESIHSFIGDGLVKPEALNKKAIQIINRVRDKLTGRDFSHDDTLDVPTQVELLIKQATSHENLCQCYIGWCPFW

Regarding `Nc1nn2c(nc(N)c3c(N)n[nH]c32)c1/N=N/c1ccccc1` [Compound 17], in assay [1] (10 μM, triplicate measurements), the inhibition at 10 µM was 61%. Also, the IC50 in assay [1] (mean ± SD of triplicate measurements) is < 10 µM and 7.59 µM. Also, in assay [2], the “phosphorylation level of 4E-BP1” value is given as “suppressed” and the “phosphorylation level of p70S6K” value is reported as “suppressed”.

As a reminder, the inhibition is the relative decrease from the control value, in per cent. The IC50 is the midpoint of a concentration-inhibition curve.

For the origin of these results see paper PMC4702177, “Discovering new mTOR inhibitors for cancer treatment through virtual screening methods and in vitro assays” (Scientific Reports, 2016).
